Test systems include UO-31 renal; OVCAR-8 ovarian; HT29 colon; SN12C renal; HOP-92 NSCLC; A498 renal; 786-0 renal; K-562 leukemia; SF-539 CNS; RXF 393 renal.
What all share (experiment): inhibition of tumour cell growth, NCI panel, 48 h

These results are taken from PubChem BioAssay (NCI).

Where “and” joins values, the source holds several entries; their conditions need not be identical. Equal values may be shown once.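 Cultured in 96-well plates, cells were exposed to test compound for 48 hours across five concentrations. Abbreviation: GI50, concentration required for 50% inhibition of growth. At the TGI there is no net growth.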

Regarding `COC(=O)[C@H](CCSC)NC(=O)c1ccc(CNC(=O)/C(C)=C/c2ccccc2)cc1`, the TGI in the test with UO-31 renal is greater than 100 µM; with OVCAR-8 ovarian, 51.4 µM; with HT29 colon, 42.7 µM; in the test on SN12C renal, greater than 100 µM; in the test with HOP-92 NSCLC, 72.2 µM; in the test with A498 renal it was greater than 100 µM. Further, the TGI is 41.8 µM in the test with 786-0 renal, greater than 100 µM with K-562 leukemia, 61.2 µM in the test with SF-539 CNS and 51.1 µM with RXF 393 renal.

For the compound `CN(C)CCNc1nc2c(no[n+]2[O-])c2ccccc12`, the TGI in the test with UO-31 renal is 49.1 µM; in the test on OVCAR-8 ovarian, 32.8 µM; in the test on HT29 colon it was greater than 100 µM; in the test on SN12C renal, greater than 100 µM; in the test with HOP-92 NSCLC, 45.1 µM; with A498 renal it was 31.6 µM. The TGI in the test with 786-0 renal worked out at 99 µM; in the test on K-562 leukemia it was 87.7 µM; in the test with SF-539 CNS, 27.6 µM; in the test with RXF 393 renal, 38.6 µM.

As to `CCCC1(N)CC(OC)OC(C)C1O` (stereo unspecified), the TGI with UO-31 renal, in the test on OVCAR-8 ovarian, in the test on HT29 colon, in the test on SN12C renal, in the test with HOP-92 NSCLC and in the test with A498 renal was greater than 100 µM in each case. Further, the TGI in the test with 786-0 renal, with K-562 leukemia, in the test on SF-539 CNS and in the test with RXF 393 renal was greater than 100 µM each time.

Take `CCOP(=O)(OCC)C(Nc1ccc(F)cc1)c1ccccc1` (stereo unspecified): the TGI in the test with UO-31 renal, in the test with OVCAR-8 ovarian, with HT29 colon, with SN12C renal, in the test on HOP-92 NSCLC and in the test on A498 renal was greater than 100 µM each time. Also, the TGI in the test with 786-0 renal, in the test on K-562 leukemia, with SF-539 CNS and in the test on RXF 393 renal was greater than 100 µM throughout.

For the compound `CC1(C)c2ccccc2C(O)C12CCC(=O)CC2` (stereo unspecified), the TGI in the test with UO-31 renal, in the test on HT29 colon, in the test with SN12C renal, with HOP-92 NSCLC, in the test on A498 renal and in the test with 786-0 renal was greater than 100 µM in each case. The results for the TGI with K-562 leukemia, in the test with SF-539 CNS and with RXF 393 renal were greater than 100 µM, greater than 100 µM and 30.8 µM, respectively.

Take `OC(CN1CCCCC1)c1ccc(/C=C/c2ccc(Cl)cc2)cc1` (stereo unspecified): the TGI in the test on UO-31 renal, with OVCAR-8 ovarian, in the test on HT29 colon, with SN12C renal, with HOP-92 NSCLC and in the test with A498 renal was greater than 100 µM throughout. The TGI in the test with 786-0 renal, with K-562 leukemia, in the test on SF-539 CNS and with RXF 393 renal was greater than 100 µM in each case.

As for `C=CCC(CNC(=O)OCc1ccccc1)OC(=O)OCc1ccccc1` (stereo unspecified), the TGI in the test with UO-31 renal, in the test on OVCAR-8 ovarian, in the test on HT29 colon, in the test on SN12C renal, in the test with HOP-92 NSCLC and in the test with A498 renal was greater than 100 µM each time. For the same compound, the TGI in the test with 786-0 renal, in the test on K-562 leukemia, in the test on SF-539 CNS and in the test with RXF 393 renal was greater than 100 µM throughout.

`Nc1ccc(-c2nc3ccccc3s2)cc1Br`: the TGI was greater than 100 µM in the test with UO-31 renal; greater than 100 µM in the test with OVCAR-8 ovarian; greater than 100 µM with HT29 colon; greater than 100 µM in the test on SN12C renal; greater than 100 µM with HOP-92 NSCLC; greater than 32.5 µM with A498 renal. Besides, the TGI was greater than 100 µM with 786-0 renal, greater than 100 µM in the test on K-562 leukemia, greater than 78.9 µM in the test on SF-539 CNS and greater than 100 µM in the test with RXF 393 renal.

In the case of `CC1CC[C@@]2(OC1)OC1C[C@H]3[C@@H]4CCC5CC(O)CC[C@]5(C)[C@H]4C/C(=N\N(C)C)[C@]3(C)C1[C@@H]2C` (stereo partly specified), the TGI with UO-31 renal was 90.4 µM; in the test on HT29 colon it was 39.9 µM; with SN12C renal, 64.7 µM; in the test on HOP-92 NSCLC, greater than 100 µM; in the test with A498 renal it was 48.6 µM; with 786-0 renal, 49.8 µM. Moreover, the TGI with K-562 leukemia was greater than 100 µM; with SF-539 CNS it was 60.9 µM; with RXF 393 renal, 37.7 µM.

With `C[N+](C)(C)CC1CCCC/C1=N\O` (stereo unspecified), the TGI with UO-31 renal, with OVCAR-8 ovarian, in the test on HT29 colon, with SN12C renal, in the test with HOP-92 NSCLC and with A498 renal was greater than 100 µM each time. Further, the TGI in the test on 786-0 renal, in the test on K-562 leukemia, in the test on SF-539 CNS and in the test with RXF 393 renal was greater than 100 µM each time.

For the compound `COC(=O)C1C2CC3C(OC(=O)C31)C2OC(=O)[C@](OC)(c1ccccc1)C(F)(F)F` (stereo partly specified), the TGI in the test with UO-31 renal, with OVCAR-8 ovarian, in the test on HT29 colon, with SN12C renal, in the test with HOP-92 NSCLC and in the test on A498 renal was greater than 100 µM each time. The TGI in the test with 786-0 renal, in the test on K-562 leukemia, with SF-539 CNS and with RXF 393 renal was greater than 100 µM in each case.

For `CC(=O)C1(O)Cc2c(O)c3c(c(O)c2C(OC2CC(N)C(O)C(C)O2)C1)C(=O)c1ccccc1C3=O` (stereo unspecified), the GI50 in the test on UO-31 renal is less than 0.0127 µM; with OVCAR-8 ovarian it was 0.0147 µM; in the test on HT29 colon, 0.0117 µM; with SN12C renal, less than 0.0117 µM; with HOP-92 NSCLC, 0.0165 µM; in the test with K-562 leukemia it was less than 0.0109 µM. Further, the GI50 in the test on SF-539 CNS is 0.0116 µM; in the test on RXF 393 renal it was 0.15 µM and 0.0166 µM. In addition, the TGI in the test with UO-31 renal is 0.204 µM and < 0.0304 µM; in the test with OVCAR-8 ovarian, 0.597 µM and 0.817 µM; with HT29 colon, 0.432 µM and 0.234 µM; in the test with SN12C renal, 0.115 µM and 0.163 µM; with HOP-92 NSCLC, 0.867 µM and 0.413 µM; with A498 renal, 0.0453 µM. The TGI is 0.0409 µM in the test with 786-0 renal; 0.78 µM and 0.716 µM in the test with K-562 leukemia; 0.199 µM and 0.0511 µM in the test with SF-539 CNS; 0.553 µM and 0.0785 µM in the test with RXF 393 renal.

For the compound `O=[N+]([O-])c1cc(Cl)ccc1S(=O)(=O)N1CCCc2cc(Cl)ccc21`, the TGI in the test with UO-31 renal, in the test with OVCAR-8 ovarian, in the test with HT29 colon, in the test on SN12C renal, in the test on HOP-92 NSCLC and in the test on A498 renal was greater than 100 µM throughout. Further, the TGI in the test on 786-0 renal, in the test on K-562 leukemia, with SF-539 CNS and with RXF 393 renal was greater than 100 µM in each case.
